Consider two compounds from patent US6627732B1, “Glutathione derivatives and their dosage forms” (Teijin Limited, priority 1998, dated 2003).

Series [1] has as its system rat models of suppressed hematopoietic function by 5-FU administration. The series is described as follows: Ratio of segmented neutrophils in rat models of suppressed hematopoietic function by 5-FU (Example 27). Type of series: in vivo. Conditions: 5-FU rats; 30 mg/kg-body weight/day with fat emulsion. The procedure: (1) The animals used are the same as in Example 26. The keeping condition was a temperature of 23±2° C. and a humidity of 55±15%.
(2) The creation of the 5-FU administration model, the administration of test substances, and the blood collection schedule were carried out in a similar manner to Example 26. Hematological tests were carried out using the Toa multi-channel automatic cell counter K-4500 or Toa Sysmex CC-180A automatic cell counter, differential counts of white blood cells were carried out by May-Giemsa stain followed by microscopic examination, reticulocytes were counted by the Brecher method.
(3) Using the same schedule as in Example 26, the negative control group that only received the fat emulsion after 5-FU administration, the group that received the glutathione derivative of Example 4 at 30 mg/kg-body weight/day as a test substance together with the fat emulsion, the group that similarly received the glutathione derivative of Example 1 at 10 or 30 mg/kg-body weight/day, and the group that received the glutathione derivative of Example 7 at 30 or 60 mg/kg-body weight/day were studied.

For a further series, the system named is IL-1β. Kind of series: Plasma level of IL-1β in normal healthy rats (ELISA). Conditions: fat emulsion 20 mg/kg-body weight/day, days 3, 5 and 7. It counts as in vivo, rat. The source says:
, plasma obtained form the EDTA-2K-treated blood on days 3, 5, and 7 of the experiment was used to determine plasma levels of interleukin 1β (hereinafter referred to as IL-1β) and tumor necrosis factor (hereinafter referred to as TNFα). For the determination, the rat IL-1β-ELISA system (manufactured by Amersham Pharmacia Biotek Co., Ltd.), the rat TNFα-ELISA system (manufactured by Amersham Pharmacia Biotek Co., Ltd.), and the BioRad microplate reader (MODEL550, Nippon BioRad laboratories, Co., Ltd.).

For a further series, the system named is normal healthy rats. The series is described as follows: Neutrophil counts and bone marrow cells in normal healthy rats (Example 28). Type of series: in vivo, rat. The procedure:
The effects of increasing neutrophil counts of the compound of Example 4 in normal healthy rats were studied.
(1) Male SD rats, 6-week old, purchased from Nippon SLC were used. The animal feed (MF, manufactured by Oriental Yeast Co., Ltd.) and drinking water (well water treated with 0.4±0.2 ppm hypochlorous acid) were given ad libitum during the period of the experiment. The animals were each housed in a hanging-type rat cage (manufactured by Nippon Cage K.K.) and kept at a temperature of 24±2° C. and a humidity of 55±5%.
(2) The glutathione derivative of Example 4 combined with the fat emulsion at 10, 20, or 30 mg/kg-body weight/day, and the fat emulsion alone as the negative control were each repeatedly administered into the tail vein for 6 days from day 1 to 6 of the experiment. Dosage was 10 ml/kg-body weight/day. From day 1 to 10 of the experiment, blood was drawn everyday from the jugular vein and the EDTA-2K-treated blood was obtained. Then the blood was used to determine the neutrophil counts using a general chemistry test instrument (Technicon H-1E, manufactured by Bayer-Sankyo K.K.).
Part of the negative control group on days 1, 7, and 10, and part of the Example 4—the fat emulsion 30 mg/kg-body weight/day administration group on days 3, 5, 7, and 10 of the experiment were bled to death from the abdominal aorta under anesthesia by the intraperitoneal administration of pentobarbital sodium. Then, the femoral bone marrow was harvested, smears were prepared therefrom using the wedge method, stained by the May-Giemsa stain, and examined under a microscope to determine the fractionation of nucleated bone marrow cells.

The nature of series [2]: Plasma concentration after intravenous administration to mice (Example 24). It counts as in vivo, mouse. As to conditions: iv tail vein 50 mg/kg, HPCD solution, 5 min, individual mice, quantitation limit about 1 μg/ml. The procedure: The blood levels of the glutathione derivatives of Example 4 and Comparative Example 1 were compared in mice that are a species having a high esterase activity in the blood.
(1) Male 8-week old BDF1 mice were purchased from Nippon SLC and used for the experiment. Until 9-week old when they were subjected to the experiment, the animals were kept at a temperature of 24±2° C. and a humidity of 55±5% under the condition under which the animals had free access to the animal feed (MF, Oriental Yeast Co., Ltd.) and drinking water (well water treated with 0.4±0.2 ppm hypochlorous acid).
After a fixed time, about 1 ml of blood was drawn from the heart of the animal under ethereal anesthesia (after drawing blood once, each mouse is sacrificed). The N number for each sample group at each time point was 2. After drawing, the blood was immediately cooled on ice and was centrifuged in the presence of sodium citrate to collect plasma. The plasma thus obtained was deproteinized with acetonitrile and then was analyzed by a C18 reverse phase high performance liquid chromatography using an aqueous solution of trifluoroacetic acid/acetonitrile system as the mobile phase to determine the concentration of glutathione derivative for each plasma.

Series [3] is described as follows: Dialysis of fat emulsion in aqueous glycerin, content of glutathione derivative retained (Example 23). It counts as physicochemical. As to conditions: 2 mg/ml fat emulsion, dialysis 2 days at room temperature in 2.3 (w/v)% glycerin, 1.2 μm filter; uncorrected for volume increase. Here is the method:
The glutathione derivative combined with a fat emulsion was dialyzed in an aqueous solution of glycerin to compare changes in the content of the glutathione derivative in the fat emulsion.
Thereupon, the concentration of the glutathione derivative in the fat emulsion was adjusted to 2 mg/ml.
(2) These fat emulsions (14 ml) were dialyzed in 1 liter of a 2.3 (w/v)% aqueous solution of glycerin. Dialysis was carried out at room temperature for 2 days with one change of the aqueous glycerin solution during the dialysis. All the fat emulsions after dialysis were about 15.6 ml. They were filtered by a 1.2 μm filter and the content of the glutathione derivative was measured.

Series [4] is described as follows: Intravenous administration of high dosages, local reaction. It counts as in vivo. Conditions: high dosages administered intravenously.

Consider `CCCCCCCCCCCCCCCCOC(=O)[C@@H](N)CCC(=O)N[C@@H](CSCc1ccccc1)C(=O)N[C@@H](C(=O)OCC)c1ccccc1.Cl` [Example 4, Glu(Cys(Bzl)-D-Phg-OEt)-O(Hexadecyl)hydrochloride], for which the “Recovery of segmented neutrophil counts relative to the negative control” value in series [1] was “tendency of promoting the recovery of segmented neutrophil counts”. Also, the “Plasma level of IL-1β relative to the negative control group” value in the series with IL-1β is recorded as “No increases”. Further, in the series on normal healthy rats (fat emulsion 30 mg/kg-body weight/day iv, days 1-6, days 2 and 5-8, significance 5%-1%), the “Neutrophil counts in the peripheral blood relative to the negative control group” value is “statistically significant increase in the neutrophil counts”. The “Neutrophilic myelocytic cells having the dividing ability in bone marrow” value in the series on normal healthy rats (fat emulsion 30 mg/kg-body weight/day, days 3 and 5) is recorded as “increased”. The “Neutrophilic myelocytic cells having no dividing ability in bone marrow” value with normal healthy rats (fat emulsion 30 mg/kg-body weight/day, maximum on day 7) is “increases were observed on day 5, 7, and 10”.
With `CCOC(=O)[C@@H](N)CCC(=O)N[C@@H](CSCc1ccccc1)C(=O)N[C@@H](C(=O)OCC)c1ccccc1.Cl` [Comparative Example 1, Glu(Cys(Bzl)-D-Phg-O(Et))-O(Et)hydrochloride, reference compound], in series [2], the Plasma concentration is at most 1000 ng/mL. In addition, the “Content of the glutathione derivative in the fat emulsion after dialysis, of the initial feed” value in series [3] came to 14.0%. Also, the “Local reaction at the site of administration” value in series [4] is given as “can cause inflammation at the site of administration”.
